Molecules are shown by their SMILES.

Sequence of recombinant human tau 4R2N (P10636 other isoform, or with tags, fused parts or gaps): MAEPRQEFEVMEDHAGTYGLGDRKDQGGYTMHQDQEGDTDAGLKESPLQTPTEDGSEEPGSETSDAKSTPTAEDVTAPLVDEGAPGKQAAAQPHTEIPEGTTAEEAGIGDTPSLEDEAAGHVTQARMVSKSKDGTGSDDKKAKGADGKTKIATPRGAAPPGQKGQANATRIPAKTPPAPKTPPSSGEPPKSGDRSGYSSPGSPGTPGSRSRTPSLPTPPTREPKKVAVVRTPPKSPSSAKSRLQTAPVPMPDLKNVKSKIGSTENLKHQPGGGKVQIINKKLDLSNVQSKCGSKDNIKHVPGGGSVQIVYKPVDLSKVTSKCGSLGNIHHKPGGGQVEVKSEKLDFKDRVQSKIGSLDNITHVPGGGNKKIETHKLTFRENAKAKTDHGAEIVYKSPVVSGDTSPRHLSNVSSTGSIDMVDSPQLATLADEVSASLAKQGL

In this experiment the target is recombinant human tau 4R2N (Homo sapiens (Human), UniProt P10636). Put plainly: AlphaLisa Assay (ALA), primary screen for inhibition of tau oligomer formation. It counts as biochemical. The settings on record: tau target 300 nM, Tris-HCl pH 7.4, 4 hours room temperature, compound 0.098 uM-50 uM. From the text:
Bacterial recombinant human tau 4R2N (the largest isoform of tau in the central nervous system, 441 amino acids in length, Seq ID 1) constructs with either 6×-His or StrepII N-terminal epitope tags were purified from bacterial lysate using denaturing conditions to prepare tau in its monomeric form.
ALA Assay: AlphaLisa Assay (ALA) was used as a primary screen for identifying compounds that inhibit tau oligomer formation. It is a bead based assay that only gives signal when the beads are in close proximity to each other. When the tau monomer (target) is incubated it forms higher order aggregates (dimer, trimer, tetramer, etc) so that when the donor and acceptor beads bind to the epitope tags of tau they are in close proximity and generate signal.
Tau target (equal mixture of each construct at 300 nM) was prepared in buffer (Tris-HCl pH 7.4) and was incubated in 96-well plates at room temperature for 4 hours with vehicle control (DMSO) and a dose range of a compound of the disclosure (0.098 uM-50 uM). AlphaLisa acceptor beads & donor beads with ligands to the epitope tags (Perkin Elmer) were diluted (final 20 ug/mL per bead) in bead buffer (25 mM HEPES pH 7.4, 100 mM NaCl, 0.1% Tween-20), added to the wells and incubated 1 hour at room temperature. The positive control (non-incubated target) & blank (no tau) were prepared and mixed with beads in bead buffer and the plate was read immediately using the EnVision plate reader (Perkin Elmer).
On the technique in general: Alpha assays give light when donor and acceptor beads are brought close together.
On to `CC(=O)CCc1oc2ccc(-c3cccs3)cc2c1-c1ccc(C)o1` [Example 8, 4-(3-(5-Methylfuran-2-yl)-5-(thiophen-2-yl)benzofuran-2-yl)butan-2-one], for which the IC50 came to 1.31 µM.

For the molecule `CC(=O)CCc1oc2ccc(Br)cc2c1CCC(C)C` [Example 9, 4-[5-Bromo-3-(3-methyl-butyl)-benzofuran-2-yl]-butan-2-one], the IC50 is greater than 10 µM.

Consider `Cc1ccc(-c2c(CCC(=O)O)oc3ccc(Br)cc23)o1` [Example 12, 3-[5-Bromo-3-(5-methyl-furan-2-yl)-benzofuran-2-yl]-propionic acid], for which the IC50 was determined as 6.09 µM.

Regarding `Cc1ccc(-c2c(CCC(=O)N3CCC(O)CC3)oc3ccc(Br)cc23)o1` [Example 13, 3-[5-Bromo-3-(5-methyl-furan-2-yl)-benzofuran-2-yl]-1-(4-hydroxy-piperidin-1-yl)-propan-1-one], the IC50 came out at 5.78 µM.

As for `CC(=O)CCc1oc2ccc(-c3ccncc3)cc2c1-c1ccc(Cl)s1` [Example 18, 4-(3-(5-Chlorothiophen-2-yl)-5-(pyridin-4-yl)benzofuran-2-yl)butan-2-one], the IC50 amounted to 7.67 µM.

Turning to `COc1cc(-c2ccc3oc(CCC(C)=O)c(-c4ccc(Cl)s4)c3c2)ccn1` [Example 19, 4-(3-(5-chlorothiophen-2-yl)-5-(2-methoxypyridin-4-yl)benzofuran-2-yl)butan-2-one], the IC50 turned out to be 20.8 µM.

As for `CC(=O)CCc1oc2ccc(-c3ccc(Cl)nc3)cc2c1-c1ccc(Cl)s1` [Example 20, 4-(5-(6-Chloropyridin-3-yl)-3-(5-chlorothiophen-2-yl)benzofuran-2-yl)butan-2-one], the IC50 was determined as 15.4 µM.

With `CC(=O)CCc1oc2cc(Br)ccc2c1-c1ccc(C)o1` [Example 21, 4-(6-Bromo-3-(5-methylfuran-2-yl)benzofuran-2-yl)butan-2-one], the IC50 was 1.17 µM.

For the molecule `CC(=O)CCc1oc2cc(-c3ccncc3)ccc2c1-c1ccc(C)o1` [Example 22, 4-(3-(5-Methylfuran-2-yl)-6-(pyridin-4-yl)benzofuran-2-yl)butan-2-one], the half-maximal inhibitory concentration (IC50) was found to be 3.42 µM.

As to `CC(=O)CCc1oc2ccc(Br)cc2c1CCc1ccc(C)cc1` [Example 26, 4-(5-Bromo-3-(2-p-tolylethyl)benzofuran-2-yl)butan-2-one], the IC50 was greater than 10 µM.

On to `COc1ccc(-c2ccc3c(-c4ccc(C)o4)c(CCC(C)=O)oc3c2)cn1` [Example 28, 4-(6-(6-Methoxypyridin-3-yl)-3-(5-methylfuran-2-yl)benzofuran-2-yl)butan-2-one], for which the half-maximal inhibitory concentration (IC50) amounted to 2.48 µM.

Broadly, the IC50 is the concentration that inhibits the measured activity by half.

The record behind these values is patent publication US20240158379A1, “NOVEL BENZOFURAN, BENZOTHIOPHENE, AND INDOLE ANALOGS THAT INHIBIT THE FORMATION OF TAU OLIGOMERS AND THEIR METHOD OF USE” (OLIGOMERIX INC., priority 2016, published 2024).
